What was measured:
[1] = biological target: T1, DYRK2 (Homo sapiens, UniProt Q92630); assay: radiometric protein kinase assay; assay type: biochemical; conditions: 15 μmol/L ATP; read-out: IC50 DYRK 2
T1 sequence (Q92630 1-601): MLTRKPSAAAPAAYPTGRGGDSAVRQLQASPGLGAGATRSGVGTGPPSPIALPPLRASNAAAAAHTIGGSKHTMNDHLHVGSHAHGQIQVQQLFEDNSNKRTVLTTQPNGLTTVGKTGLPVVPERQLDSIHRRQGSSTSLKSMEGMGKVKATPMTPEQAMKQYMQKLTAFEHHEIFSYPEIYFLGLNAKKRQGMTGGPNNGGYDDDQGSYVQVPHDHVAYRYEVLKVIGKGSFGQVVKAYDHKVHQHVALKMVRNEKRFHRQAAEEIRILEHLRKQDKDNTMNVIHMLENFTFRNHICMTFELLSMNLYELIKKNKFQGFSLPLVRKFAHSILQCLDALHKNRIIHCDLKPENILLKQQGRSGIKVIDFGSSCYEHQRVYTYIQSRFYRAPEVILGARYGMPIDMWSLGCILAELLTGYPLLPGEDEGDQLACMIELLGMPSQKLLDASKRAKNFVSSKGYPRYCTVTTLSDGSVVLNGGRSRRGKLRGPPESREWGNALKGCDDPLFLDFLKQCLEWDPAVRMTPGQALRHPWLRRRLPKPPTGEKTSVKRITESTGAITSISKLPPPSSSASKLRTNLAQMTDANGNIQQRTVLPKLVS

[2] = biological target: DYRK1A (Homo sapiens, UniProt Q13627); assay: radiometric protein kinase assay; assay type: biochemical; conditions: 15 μmol/L ATP; read-out: IC50 DYRK 1A
[3] = biological target: GSK-3; assay: radiometric protein kinase assay; assay type: biochemical, porcine; conditions: 15 μmol/L ATP; read-out: IC50 GSK3
[4] = biological target: T2, CDK5/p25 (Homo sapiens, UniProt Q00535); assay: radiometric protein kinase assay; assay type: biochemical; conditions: 15 μmol/L ATP
T2 construct: made in house
T2 sequence (Q00535 whole entry): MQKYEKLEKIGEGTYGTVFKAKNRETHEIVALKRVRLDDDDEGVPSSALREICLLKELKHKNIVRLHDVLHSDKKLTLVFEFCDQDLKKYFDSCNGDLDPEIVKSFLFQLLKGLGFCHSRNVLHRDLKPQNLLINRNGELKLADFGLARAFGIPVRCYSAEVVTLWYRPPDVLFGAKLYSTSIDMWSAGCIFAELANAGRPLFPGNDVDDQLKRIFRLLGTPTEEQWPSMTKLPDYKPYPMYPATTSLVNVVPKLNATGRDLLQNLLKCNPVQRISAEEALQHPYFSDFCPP
T2 sequence (Q15078 99-307 partner limits assumed): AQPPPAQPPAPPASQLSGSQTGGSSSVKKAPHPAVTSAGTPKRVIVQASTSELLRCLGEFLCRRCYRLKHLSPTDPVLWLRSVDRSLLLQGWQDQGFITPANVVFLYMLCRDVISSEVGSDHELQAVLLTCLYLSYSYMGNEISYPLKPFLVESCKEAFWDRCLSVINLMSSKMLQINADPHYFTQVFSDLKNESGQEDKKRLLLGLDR

[5] = test system: UACC-257; assay: NCI cancer cell line screening; assay type: cell-based, human
Experimental: Being the most promising compound in terms of CLK1 inhibitory potency and selectivity, KuWal151 (8c) was tested in the National Cancer Institute cancer cell line screening on 57 tumor cell lines of different tissue origin [45]. With only a few exceptions, KuWal151 inhibited the growth of most cell lines in submicromolar concentrations. In Table 2 the cancer cell line inhibition data is listed with the expression rates of SPF45 and CLK1 as indicated in the Expression Atlas database (https://www.ebi.ac.uk/gxa/home). Apparently the cell lines with high levels of CLK1 encoding RNA are inhibited over average. […] However, the available data are not sufficient to construe a clear relationship between the expression levels of the putative target CLK1 and sensitivity of the cell lines against 8c. The same holds true for SPF45, an important substrate of CLK1 involved in splicing which is found to be overexpressed in many cancer cell lines. […] The lack of a straight relationship between CLK1 and/or SPF45 expression levels on the one hand and sensitivity against the CLK1 inhibitor 8c on the other hand may have various reasons, e.g. different uptake rates of the inhibitor by the cells or alternative intracellular targets. […]

[6] = biological target: DYRK1B (Homo sapiens, UniProt Q9Y463); assay: radiometric protein kinase assay; assay type: biochemical; conditions: 15 μmol/L ATP; read-out: IC50 DYRK 1B
Chain of DYRK1B (Q9Y463 whole entry): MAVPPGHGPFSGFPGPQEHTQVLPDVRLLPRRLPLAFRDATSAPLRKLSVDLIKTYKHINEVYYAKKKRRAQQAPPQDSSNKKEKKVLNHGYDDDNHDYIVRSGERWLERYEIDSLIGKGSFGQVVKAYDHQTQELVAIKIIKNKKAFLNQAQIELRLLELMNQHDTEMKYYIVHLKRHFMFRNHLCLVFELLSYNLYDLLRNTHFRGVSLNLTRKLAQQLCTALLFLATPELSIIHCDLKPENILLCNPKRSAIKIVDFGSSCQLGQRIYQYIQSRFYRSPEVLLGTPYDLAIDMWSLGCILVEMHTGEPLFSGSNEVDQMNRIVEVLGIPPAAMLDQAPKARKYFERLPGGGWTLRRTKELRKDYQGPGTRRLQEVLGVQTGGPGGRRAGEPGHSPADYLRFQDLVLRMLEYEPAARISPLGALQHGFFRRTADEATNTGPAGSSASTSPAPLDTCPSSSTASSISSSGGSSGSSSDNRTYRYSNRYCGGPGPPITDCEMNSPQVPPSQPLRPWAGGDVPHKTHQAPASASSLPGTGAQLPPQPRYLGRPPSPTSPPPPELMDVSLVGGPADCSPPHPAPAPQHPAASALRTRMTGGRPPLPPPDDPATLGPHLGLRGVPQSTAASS

[7] = biological target: T3, DYRK3 (Homo sapiens, UniProt O43781); assay: radiometric protein kinase assay; assay type: biochemical; conditions: 15 μmol/L ATP; read-out: IC50 DYRK 3
T3 sequence (O43781 1-588): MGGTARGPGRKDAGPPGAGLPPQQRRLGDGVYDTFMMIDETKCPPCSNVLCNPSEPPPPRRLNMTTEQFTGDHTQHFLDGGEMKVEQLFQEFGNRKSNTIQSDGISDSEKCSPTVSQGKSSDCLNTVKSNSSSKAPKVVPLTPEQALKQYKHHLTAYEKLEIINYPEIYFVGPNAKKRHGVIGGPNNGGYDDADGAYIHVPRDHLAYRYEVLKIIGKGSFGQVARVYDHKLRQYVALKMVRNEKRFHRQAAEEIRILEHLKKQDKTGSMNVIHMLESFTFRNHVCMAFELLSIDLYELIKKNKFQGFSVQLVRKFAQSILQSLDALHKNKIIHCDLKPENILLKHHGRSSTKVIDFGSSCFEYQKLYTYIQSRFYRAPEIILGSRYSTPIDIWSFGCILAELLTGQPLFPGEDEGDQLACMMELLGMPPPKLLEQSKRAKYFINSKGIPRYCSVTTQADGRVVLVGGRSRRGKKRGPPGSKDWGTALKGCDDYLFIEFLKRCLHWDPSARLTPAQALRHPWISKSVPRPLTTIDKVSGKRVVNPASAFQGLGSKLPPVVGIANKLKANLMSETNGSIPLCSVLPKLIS

[8] = biological target: T4, CDK2/cyclin A (Homo sapiens, UniProt P24941); assay: radiometric protein kinase assay; assay type: biochemical; conditions: 15 μmol/L ATP; read-out: IC50 CDK2/cyclinA
T4 construct: made in house

[9] = biological target: CK1δ/ε; assay: radiometric protein kinase assay; assay type: biochemical, porcine; conditions: 15 μmol/L ATP; read-out: IC50 CK1

`O=C1NCc2ccc3c(-c4cccc(Cl)c4)c[nH]c3c21` [8c, 3-(3-Chlorophenyl)-6,7-dihydropyrrolo[3,4-g]indol-8(1H)-one] showed an IC50 [1] greater than 10 µM, an IC50 [2] greater than 10 µM and an IC50 [3] greater than 10 µM. It also gave an IC50 [4] greater than 10 µM, a GI50 ([5]; Homo sapiens, UACC-257, UACC-257, Melanoma) greater than 50 µM and a GI50 ([5]; UACC-257, Melanoma) greater than 50.1 µM. The IC50 [6] was greater than 10 µM, the IC50 [7] was greater than 10 µM and the IC50 [8] was greater than 10 µM. It also gave an IC50 [9] greater than 10 µM.

Source: article PMC5933782, “Molecular structures of cdc2-like kinases in complex with a new inhibitor chemotype” (PLoS ONE, 2018)
